According to PMC7092364 (European journal of medicinal chemistry, 2017):
Marks after values point to notes of the source that are not given here.

How the values were obtained:
[1] = molecular target: full-length recombinant NC (1–55) (Human immunodeficiency virus type 1 group M subtype B, UniProt P12493); assay: Non-denaturing ESI-MS binding and binding competition with NC; set-up: species or system HIV-1 LAI strain; settings: for complex formation with NC (ESI-MS): 5 μM NC, ten-fold compound concentration
MT-2 cells = type: cell-based; settings: human, 72 h
NC(11–55) peptide = NC(11–55) peptide (Human immunodeficiency virus type 1 group M subtype B, UniProt P04591, I389N); assay: Nucleic acid destabilization assay; type: biochemical, HIV-1 MAL strain; settings: 200 μM of compound

| Compound | complex formation with NC (ESI-MS) [1] | TD50 (MT-2 cells) | inhibition of the NC-induced cTAR55 destabilization (NC(11–55) peptide) | affinity of 5–06 for NC relative to compound 5 ([1]; from fractional occupancies) |
| --- | --- | --- | --- | --- |
| Cc1ccc(NS(=O)(=O)c2ccc3oc(=O)[nH]c3c2)c(C)c1 [compound 5, N-(2,4-dimethylphenyl)-2-oxo-2,3-dihydro-1,3-benzoxazole-5-sulfonamide] | stable 1:1 complexes | – | – | – |
| O=c1[nH]c2cc(S(=O)(=O)Nc3ccc4[nH]ncc4c3)ccc2o1 [5–06, N-(1H-indazol-5-yl)-2-oxo-2,3-dihydro-1,3-benzoxazole-5-sulfonamide] | stable 1:1 complexes | 140^# (75.0–378.0) μM | by half | two to three-fold higher affinity |
